This note sets out measurements from patent publication US7723358B2, “Aroyl-O-piperidine derivatives for the treatment of diabetes-related problems” (Merck Patent GmbH, priority 2004, dated 2010).

Molecules are shown by their SMILES.

For the assay, the target named is T1, microsomal triglyceride transfer protein (MTP) (Mesocricetus auratus, UniProt P55158).
T1 construct: The supernatant comprising the soluble MTP is dialysed against Tris/HCl 150 mM; from tissue; host or cells: golden hamster liver microsomes, deoxycholate-solubilised supernatant, dialysed
T1 sequence (P55158 19-895): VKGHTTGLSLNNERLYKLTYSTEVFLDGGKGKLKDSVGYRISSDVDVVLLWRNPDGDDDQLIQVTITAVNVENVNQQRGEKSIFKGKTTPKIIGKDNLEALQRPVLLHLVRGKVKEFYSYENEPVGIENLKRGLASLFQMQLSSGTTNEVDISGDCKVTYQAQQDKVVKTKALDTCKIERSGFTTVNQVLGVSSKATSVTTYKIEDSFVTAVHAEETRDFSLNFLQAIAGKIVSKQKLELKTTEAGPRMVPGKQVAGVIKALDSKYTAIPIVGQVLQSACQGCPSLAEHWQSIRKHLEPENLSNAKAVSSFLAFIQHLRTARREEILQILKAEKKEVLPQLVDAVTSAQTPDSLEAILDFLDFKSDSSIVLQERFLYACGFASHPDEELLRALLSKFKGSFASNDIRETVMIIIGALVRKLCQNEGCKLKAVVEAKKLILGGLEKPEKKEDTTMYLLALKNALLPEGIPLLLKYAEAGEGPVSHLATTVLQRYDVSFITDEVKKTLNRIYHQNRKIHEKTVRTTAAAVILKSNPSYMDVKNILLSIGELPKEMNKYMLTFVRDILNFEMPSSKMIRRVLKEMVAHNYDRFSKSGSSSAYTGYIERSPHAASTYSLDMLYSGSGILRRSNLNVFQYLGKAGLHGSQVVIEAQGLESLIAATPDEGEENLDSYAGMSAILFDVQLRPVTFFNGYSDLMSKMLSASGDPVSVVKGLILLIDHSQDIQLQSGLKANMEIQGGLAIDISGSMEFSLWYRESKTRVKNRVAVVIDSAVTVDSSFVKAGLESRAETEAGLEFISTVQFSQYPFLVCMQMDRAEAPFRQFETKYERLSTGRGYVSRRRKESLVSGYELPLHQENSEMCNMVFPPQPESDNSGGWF
The assay is described as follows: Inhibition of MTP activity: transfer of [3H]-triolein from donor liposomes to biotinylated LDL, SPA. The format is biochemical. As to conditions: MTP from golden hamster liver; incubation 18-24 hours at 37° C.; read-out: IC50, concentration that allows a 50% inhibition of MTP. Here is the method:
Analysis of the Inhibition of MTP Activity
The inhibition of the activity of microsomal triglyceride transfer protein (MTP) was tested by using the following operating protocol.
The inhibition of MTP activity with a compound can be quantified by observing the inhibition of the transfer of a labelled triglyceride, from a donor particle to an acceptor particle, in the presence of MTP. The procedure for the preparation of MTP is based on the method by Wetterau and Zilversmit (Biochem. Biophys. Acta (1986) 875, 610). A few grams of golden hamster liver are taken and then rinsed several times in a 250 mM sucrose solution at 0° C. All the following steps proceed at +4° C. A homogenate at a concentration of 50% in 250 mM sucrose is prepared using a Teflon mill and then centrifuged for 10 minutes at 10 000×g at +4° C. The supernatant is then centrifuged at 105 000×g for 75 minutes at +4° C. The supernatant is discarded and the microsomal pellet is taken up in 3 ml (per g of starting liver) of Tris/HCl 150 mM pH 8.0. 1-ml aliquot fractions are stored at −80° C. until the time of use.
After thawing a fraction of microsomes (1 ml), 12 ml of refrigerated Tris/HCl 50 mM, KCl 50 mM, MgCl2 5 mM pH 7.4 buffers and 1.2 ml of deoxycholate (0.54% in water) are added. After incubation for 30 minutes at +4° C. with gentle agitation, the suspension is centrifuged at 105 000×g for 75 minutes. The supernatant comprising the soluble MTP is dialysed against Tris/HCl 150 mM, NaCl 40 mM, EDTA 1 mM, 0.02% sodium azide pH 7.4 buffer (5 times one litre over 2-3 days). The MTP is stored at +4° C., is stable for at least 30 days and is used in unmodified form in the test.
The donor particles (liposomes) are prepared from 208 μl of L-phosphatidylcholine at a concentration of 10 mg/ml in chloroform, and 480 μl of [3H]-triolein at a concentration of 0.5 mCi/ml in toluene. After stirring, the solution is evaporated under nitrogen, taken up in 6 ml of Tris/HCl 50 mM, KCl 50 mM, MgCl2 5 mM pH 7.4 buffer and incubated in an ultrasound bath for 30 minutes at room temperature. The liposomes are stored at +4° C. and sonicated again for 10 minutes before each use.
The acceptor particles are biotinylated low density lipoproteins (LDL-biot). These particles are supplied by the company Amersham.
The reaction mixture is prepared in untreated ½ well white plates (Corning Costar) by addition, in the following order, of: 5 μl of HEPES 50 mM, NaCl 150 mM, BSA 0.1% (w/v), 0.05% sodium azide (w/v), pH 7.4 buffer; 5 μl of liposome; 5 μl of LDL-biot; 5 μl of test products in DMSO; 5 μl of MTP. After incubation for 18-24 hours at 37° C., the reaction is stopped by adding 100 μl of Amersham SPA (Scintillation Proximity Assay) beads coupled to streptavidin, and the radioactivity is counted using a Top Count (Packard) machine at least one hour later. The inhibition of the transfer of the triglycerides with a compound is reflected by a reduction in the transferred radioactivity.
The results are expressed in terms of the IC50, i.e. the concentration that allows a 50% inhibition of MTP.
Consider `COc1cc(NC(=O)N2CCC(Oc3cccc(NC(=O)c4cccc(C)c4-c4ccc(OC(F)(F)F)cc4)c3)CC2)cc(OC)c1OC` [Example 38, 4-[3-[[[6-methyl-4′-(trifluoromethoxy)[1,1′-biphenyl]-2-yl]carbonyl]amino]phenoxy]-N-(3,4,5-trimethoxyphenyl)-1-piperidine-carboxamide], for which the IC50 was determined as 422 nM. Under `CSc1ccc(NC(=O)N2CCC(Oc3cccc(NC(=O)c4cccc(C)c4-c4ccc(OC(F)(F)F)cc4)c3)CC2)cc1` [Example 39, N-[4-(methylthio)phenyl]-4-[3-[[[6-methyl-4′-(trifluoromethoxy)[1,1′-biphenyl]-2-yl]-carbonyl]amino]phenoxy]-1-piperidine-carboxamide] stands 85.7 nM; under `COC(=O)c1cccc(NC(=O)N2CCC(Oc3cccc(NC(=O)c4cccc(C)c4-c4ccc(OC(F)(F)F)cc4)c3)CC2)c1` [Example 43, methyl 3-[[[4-[3-[[[6-methyl-4′-(trif1uoro-methoxy)[1,1′-biphenyl]-2-yl]carbonyl]-amino]phenoxy]-1-piperidinyl]carbonyl]-amino]benzoate], 201 nM. To `CCOC(=O)CCCCCNC(=O)N1CCC(Oc2cccc(NC(=O)c3cccc(C)c3-c3ccc(OC(F)(F)F)cc3)c2)CC1` [Example 45, ethyl 6-[[[4-[3-[[[6-methyl-4′-(trifluorometh-oxy)[1,1′-biphenyl]-2-yl]carbonyl]amino]-phenoxy]-1-piperidinyl]carbonyl]amino]-hexanoate] belongs 779 nM; to `Cc1cccc(C(=O)Nc2cccc(OC3CCN(C(=O)Nc4ccccc4OC(F)(F)F)CC3)c2)c1-c1ccc(OC(F)(F)F)cc1` [Example 47, 4-[3-[[[6-methyl-4′-(trifluoromethoxy)[1,1′-biphenyl]-2-yl]carbonyl]amino]phenoxy]-N-(2-(trifluoromethoxy)phenyl]-1-piperi-dinecarboxamide], 158 nM. Under `COC(=O)[C@@H](NC(=O)N1CCC(Oc2cccc(NC(=O)c3cccc(C)c3-c3ccc(OC(F)(F)F)cc3)c2)CC1)C(C)C` [Example 49, methyl N-[[4-[3-[[[6-methyl-4′-(trifluoro-methoxy)[1,1′-biphenyl]-2-yl]carbonyl]-amino]phenoxy]-1-piperidinyl]carbonyl]-L-valinate] stands 551 nM; under `Cc1cccc(C(=O)Nc2cccc(OC3CCN(C(=O)Nc4ccc(N(C)C)cc4)CC3)c2)c1-c1ccc(OC(F)(F)F)cc1` [Example 51, N-[4-(dimethylamino)phenyl]-4-[3-[[[6-methyl-4′-(trifluoromethoxy)[1,1′-biphenyl]-2-yl]carbonyl]amino]phenoxy]-1-piperidinecarboxamide], 111 nM; under `Cc1cccc(C(=O)Nc2cccc(OC3CCN(C(=O)NC4CCCC4)CC3)c2)c1-c1ccc(OC(F)(F)F)cc1` [Example 57, N-cyclopentyl-4-[3-[[[6-methyl-4′-(trifluoro-methoxy)[1,1′-biphenyl]-2-yl]carbonyl]-amino]phenoxy]-1-piperidinecarboxamide], 187 nM. With `Cc1cccc(C(=O)Nc2cccc(OC3CCN(Cc4ccccc4)CC3)c2)c1-c1ccc(OC(F)(F)F)cc1` [Example 58, [1,1′-biphenyl]-6-methyl-N-[3-[[1-(phenyl-methyl)-4-piperidinyl]oxy]phenyl]-4′-(trifluoromethoxy)-2-carboxamide], the IC50 was determined as 74.1 nM.

`Cc1cccc(C(=O)Nc2cccc(OC3CCN(Cc4cccs4)CC3)c2)c1-c1ccc(OC(F)(F)F)cc1` [Example 59, [1,1′-biphenyl]-6-methyl-N-[3-[[1-(2-thienylmethyl)-4-piperidinyl]oxy]phenyl]-4′-(trifluoromethoxy)-2-carboxamide]: the IC50 came out at 186 nM. To `Cc1cccc(C(=O)Nc2cccc(OC3CCN(Cc4cc5ccccc5o4)CC3)c2)c1-c1ccc(OC(F)(F)F)cc1` [Example 60, N-[3-[[1-(2-benzofuranylmethyl)-4-piperi-dinyl]oxy]phenyl]-6-methyl-4′-(trifluoro-methoxy)-[1,1′-biphenyl]-2-carboxamide] belongs 240 nM. Under `Cc1ccccc1NC(=O)N1CCC(Oc2cccc(NC(=O)c3cccc(C)c3-c3ccc(OC(F)(F)F)cc3)c2)CC1` [Example 62, N-(2-methylphenyl)-4-[3-[[[6-methyl-4′-(trifluoromethoxy)[1,1′-biphenyl]-2-yl]-carbonyl]amino]phenoxy]-1-piperidine-carboxamide] stands 119 nM; under `Cc1cccc(C(=O)Nc2cccc(OC3CCN(Cc4ccncc4)CC3)c2)c1-c1ccc(OC(F)(F)F)cc1` [Example 66, 6-methyl-N-[3-[[1-(4-pyridinylmethyl)-4-piperidinyl]oxy]phenyl]-4′-(trifluorometh-oxy)[1,1′-biphenyl]-2-carboxamide], 189 nM; under `CC(C)(C)OC(=O)N1CCC(Oc2cccc(NC(=O)c3ccccc3-c3ccc(OC(F)(F)F)cc3)c2)CC1` [Example 67, 1,1-dimethylethyl 4-[3-[[[4′-(trifluorometh-oxy)[1,1′-biphenyl]-2-yl]carbonyl]amino]-phenoxy]-1-piperidinecarboxylate], 234 nM. Under `CCOC(=O)N1CCC(Oc2cccc(NC(=O)c3ccccc3-c3ccc(C(F)(F)F)cc3)c2)CC1` [Example 77, ethyl 4-[3-[[[4′-(trifluoromethyl)[1,1′-biphenyl]-2-yl]carbonyl]amino]phenoxy]-1-piperidinecarboxylate] stands 82.5 nM; under `Cc1cccc(C(=O)Nc2cccc(OC3CCN(CC4CCOC4)CC3)c2)c1-c1ccc(OC(F)(F)F)cc1` (stereo not drawn) [Example 78, 6-methyl-N-[3-[[1-[(tetrahydro-3-furanyl)-methyl]-4-piperidinyl]oxy]phenyl]-4′-(tri-fluoromethoxy)[1,1′-biphenyl]-2-carbox-amide], 447 nM. For `Cc1cccc(C(=O)Nc2cccc(OC3CCN(Cc4cccnc4)CC3)c2)c1-c1ccc(OC(F)(F)F)cc1` [Example 81, 6-methyl-N-[3-[[1-(3-pyridinylmethyl)-4-piperidinyl]oxy]phenyl]-4′-(trifluorometh-oxy)[1,1′-biphenyl]-2-carboxamide], the IC50 was found to be 315 nM.

In the case of `Cc1cccc(CN2CCC(Oc3cccc(NC(=O)c4cccc(C)c4-c4ccc(OC(F)(F)F)cc4)c3)CC2)n1` [Example 83, 6-methyl-N-[3-[[1-[(6-methyl-2-pyridinyl)-methyl]-4-piperidinyl]oxy]phenyl]-4′-(trifluoromethoxy)[1,1′-biphenyl]-2-carboxamide], the IC50 was 633 nM.
